A word on the IC50: it is the concentration that inhibits the measured activity by half.

This is an account of results in US20250018047A1, “METHODS AND COMPOSITIONS FOR TARGETED PROTEIN DEGRADATION” (Ranok Therapeutics (Hangzhou) Co. Ltd., priority 2021, published 2025).

Structures can show the parent of a compound that is named as a salt.

The target in assay [1] is T1, KRAS(G12D)/SOS1 (Homo sapiens, UniProt P01116, G12D).
T1 construct: purchased Cisbio 63ADK000CB16PEG
The assay is described as follows: KRAS(G12D)/SOS1 homogeneous time-resolved fluorescence (HTRF) assay. The format is binding. The conditions noted are these: absence of GTP, 4° C. for 3 hr. As for the experimental part:
The test compound was mixed and incubated with reaction components, incubated in a sealed plate at 4° C. for 3 hr and fluorescence was measured using a PerkinElmer Envision plate reader.

The test system of assay [2] is AsPC-1 human pancreatic adenocarcinoma. The experiment in a line: CellTiter-Glo cancer cell line proliferation assay, AsPC-1. The conditions noted are these: Homo sapiens, ASPC1, 24 hr. The format is cell-based. As for the experimental part: Cell lines were cultured according to ATCC and recommendations.
(§1) CellTiter-Glo® Reagent Cancer Cell Line Proliferation Assays
Cells were plated in 96-well tissue culture plates at 4,000 cells/well and incubated at 37° C./5% CO2 for 24 hr in 100 μl of media. […] Cells were then treated with test compounds at various concentrations with a final concentration of 0.5% DMSO/well, and then incubated at 37° C./5% CO2 for 24 hr. 100 μl of CellTiter-Glo® Reagent (Promega Corporation, Madison, WI) was added to each well and processed according manufacturer's protocol. Results were analyzed and IC50-values were calculated in GraphPad 7 software.
A general note: In ATP-based viability assays light output follows the ATP content of the culture.

Assay [3] concerns A-427 human lung carcinoma. The experiment in a line: CellTiter-Glo cancer cell line proliferation assay, A-427. The conditions noted are these: Homo sapiens, A-427, 24 hr, read-out: A427 at 24 hrs, IC50. The format is cell-based. The method in brief:
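Cells plated at 4,000/well, grown 24 h at 37 °C/5% CO2, then exposed to compound concentration series (0.5% DMSO final) for 24 h. Viability read by CellTiter-Glo luminescence; IC50 values calculated.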

Assay [4] addresses BA/F3-KRAS(G12D) murine pro-B cell line stably expressing KRAS(G12D) (Homo sapiens, UniProt P01116, G12D, cells depend on it). The experiment in a line: CellTiter-Glo cancer cell line proliferation assay, BA/F3-KRAS(G12D). The conditions noted are these: 24 hr, read-out: BAF3 at 24 hrs, IC50. The format is cell-based. As for the experimental part: The following cancer cell lines were employed: AsPC-1 human pancreatic adenocarcinoma (ATCC, #CRL-1682); A-427 human lung carcinoma (ATCC, #HTB-53); BA/F3-KRAS(G12D) murine pro-B cell line stably expressing KRAS(G12D) (Precedo, Hefei, China). Cell lines were cultured according to ATCC and recommendations. BA/F3-KRAS(G12D) cells were cultured in RPMI 1640 media with 10% fetal calf serum, 100 units/mL penicillin and […] streptomycin, and 1% glutamine.
as §1
Cells were plated in 96-well tissue culture plates at 4,000 cells/well and incubated at 37° C./5% CO2 for 24 hr in 100 μl of media. 3-fold serial dilutions of each test compound were prepared ranging from 20 μM to 1.02 nM. Cells were then treated with test compounds at various concentrations with a final concentration of 0.5% DMSO/well, and then incubated at 37° C./5% CO2 for 24 hr. 100 μl of CellTiter-Glo® Reagent (Promega Corporation, Madison, WI) was added to each well and processed according manufacturer's protocol. Results were analyzed and IC50-values were calculated in GraphPad 7 software.

T1 sequence (P01116 1-188 isoform P01116-2 G12D): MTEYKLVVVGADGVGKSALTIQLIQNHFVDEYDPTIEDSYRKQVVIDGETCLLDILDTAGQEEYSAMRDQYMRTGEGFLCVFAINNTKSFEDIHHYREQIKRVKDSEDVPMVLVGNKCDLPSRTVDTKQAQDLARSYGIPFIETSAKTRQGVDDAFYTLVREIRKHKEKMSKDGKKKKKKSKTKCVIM
Chain of BA/F3-KRAS(G12D) murine pro-B cell line stably expressing KRAS(G12D) (P01116 whole entry G12D): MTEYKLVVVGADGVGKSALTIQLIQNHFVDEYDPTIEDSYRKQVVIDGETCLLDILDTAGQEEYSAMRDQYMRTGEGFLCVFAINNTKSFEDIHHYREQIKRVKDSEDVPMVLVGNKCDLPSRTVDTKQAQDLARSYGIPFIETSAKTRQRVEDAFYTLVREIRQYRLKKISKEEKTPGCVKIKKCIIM

Consider `Cc1ncsc1-c1ccc(CNC(=O)[C@@H]2C[C@@H](O)CN2C(=O)[C@@H](NC(=O)C2CCN([C@H]3C[C@@H](COc4nc(N5CC6CCC(C5)N6)c5cnc(-c6cccc7ccccc67)c(F)c5n4)N(C)C3)CC2)C(C)(C)C)cc1` [Compound 23, 1-((3S,5S)-5-(((4-(3,8-diazabicyclo[3.2.1]octan-3-yl)-8-fluoro-7-(naphthalen-1-yl)pyrido[4,3-d]pyrimidin-2-yl)oxy)methyl)-1-methylpyrrolidin-3-yl)-N—((S)-1-((2S,4R)-4-hydroxy-2-((4-(4-methylthiazol-5-yl)benzyl)carbamoyl)pyrrolidin-1-yl)-3,3-dimethyl-1-oxobutan-2-yl)piperidine-4-carboxamide formate], for which the IC50 in assay [1], in assay [2] and in assay [3] was more than 1 µM throughout. Further, the GI50 in assay [4] is more than 1 µM.
Take `C#Cc1cccc2cccc(-c3ncc4c(N5CC6CCC(C5)N6)nc(OCC5(CN6CCN(CC7CCN(c8cccc9c8C(=O)N(C8CCC(=O)NC8=O)C9=O)CC7)CC6)CC5)nc4c3F)c12` (stereo not shown) [Compound 29, 4-(4-((4-((1-(((4-(3,8-diazabicyclo[3.2.1]octan-3-yl)-7-(8-ethynylnaphthalen-1-yl)-8-fluoropyrido[4,3-d]pyrimidin-2-yl)oxy)methyl)cyclopropyl)methyl)piperazin-1-yl)methyl)piperidin-1-yl)-2-(2,6-dioxopiperidin-3-yl)isoindoline-1,3-dione formate]: the figures for the IC50 in assay [1], in assay [2] and in assay [3] were less than 0.1 µM, more than 1 µM and more than 1 µM, respectively. The GI50 in assay [4] was 0.1 to 1 µM.
`CN1C[C@@H](N2CCC(C(=O)NCCOCCOc3ccc4c(c3)C(=O)N(C3CCC(=O)NC3=O)C4=O)CC2)C[C@H]1COc1nc(N2CC3CCC(C2)N3)c2cnc(-c3cccc4cccc(Cl)c34)c(F)c2n1` (stereo partly drawn) [Compound 11, 1-((3S,5S)-5-(((4-(3,8-diazabicyclo[3.2.1]octan-3-yl)-7-(8-chloronaphthalen-1-yl)-8-fluoropyrido[4,3-d]pyrimidin-2-yl)oxy)methyl)-1-methylpyrrolidin-3-yl)-N-(2-(2-((2-(2,6-dioxopiperidin-3-yl)-1,3-dioxoisoindolin-5-yl)oxy)ethoxy)ethyl)piperidine-4-carboxamide formate]: the half-inhibitory concentration (IC50) in assay [1] was 0.1 to 1 µM; in assay [2], more than 1 µM; in assay [3] it was more than 1 µM. Also, the GI50 in assay [4] is more than 1 µM.
Consider `C#Cc1cccc2cccc(-c3ncc4c(N5CC6CCC(C5)N6)nc(OC[C@@H]5CC[C@H](CN6CCN(CC7CCN(c8ccc9c(c8)C(=O)N(C8CCC(=O)NC8=O)C9=O)CC7)CC6)N5C)nc4c3F)c12` (stereo partly drawn) [Compound 13, 5-(4-((4-(((2R,5S)-5-(((4-(3,8-diazabicyclo[3.2.1]octan-3-yl)-7-(8-ethynylnaphthalen-1-yl)-8-fluoropyrido[4,3-d]pyrimidin-2-yl)oxy)methyl)-1-methylpyrrolidin-2-yl)methyl)piperazin-1-yl)methyl)piperidin-1-yl)-2-(2,6-dioxopiperidin-3-yl)isoindoline-1,3-dione hydrochloride], for which the IC50 in assay [1] is less than 0.1 µM; in assay [2], more than 1 µM; in assay [3], more than 1 µM. In addition, the GI50 in assay [4] was in the range of 0.1 to 1 µM.
Turning to `C#Cc1cccc2cccc(-c3ncc4c(N5CC6CCC(C5)N6)nc(OCCN5CCN(C(=O)C6CCN(c7ccc8c(c7)CN(C7CCC(=O)NC7=O)C8=O)CC6)CC5)nc4c3F)c12` (stereo not shown) [Compound 17, 3-(5-(4-(4-(2-((4-(3,8-diazabicyclo[3.2.1]octan-3-yl)-7-(8-ethynylnaphthalen-1-yl)-8-fluoropyrido[4,3-d]pyrimidin-2-yl)oxy)ethyl)piperazine-1-carbonyl)piperidin-1-yl)-1-oxoisoindolin-2-yl)piperidine-2,6-dione formate], the values for the half-maximal inhibitory concentration (IC50) in assay [1], in assay [2] and in assay [3] were less than 0.1 µM, more than 1 µM and more than 1 µM, respectively. For the same compound, in assay [4], the GI50 was more than 1 µM.
Turning to `C#Cc1cccc2cccc(-c3ncc4c(N5CC6CCC(C5)N6)nc(OC[C@@H]5C[C@H](N6CCN(CC7CCN(c8cccc9c8C(=O)N(C8CCC(=O)NC8=O)C9=O)CC7)CC6)CN5C)nc4c3F)c12` (stereo partly drawn) [Compound 6, 4-(4-((4-((3S,5S)-5-(((4-(3,8-diazabicyclo[3.2.1]octan-3-yl)-7-(8-ethynylnaphthalen-1-yl)-8-fluoropyrido[4,3-d]pyrimidin-2-yl)oxy)methyl)-1-methylpyrrolidin-3-yl)piperazin-1-yl)methyl)piperidin-1-yl)-2-(2,6-dioxopiperidin-3-yl)isoindoline-1,3-dione hydrochloride], the IC50 was less than 0.1 µM in assay [1], more than 1 µM in assay [2] and more than 1 µM in assay [3]. Moreover, the GI50 in assay [4] is more than 1 µM.
`CN1C[C@@H](N2CCC(C(=O)N3CCN(c4ccc5c(c4)C(=O)N(C4CCC(=O)NC4=O)C5=O)CC3)CC2)C[C@H]1COc1nc(N2CC3CCC(C2)N3)c2cnc(-c3cccc4ccccc34)c(F)c2n1` (stereo partly drawn) [Compound 19, 5-(4-(1-((3S,5S)-5-(((4-(3,8-diazabicyclo[3.2.1]octan-3-yl)-8-fluoro-7-(naphthalen-1-yl)pyrido[4,3-d]pyrimidin-2-yl)oxy)methyl)-1-methylpyrrolidin-3-yl)piperidine-4-carbonyl)piperazin-1-yl)-2-(2,6-dioxopiperidin-3-yl)isoindoline-1,3-dione formate]: the IC50 in assay [1] was 0.1 to 1 µM; in assay [2], more than 1 µM; in assay [3], more than 1 µM. In assay [4], the GI50 is more than 1 µM.
Consider `C#Cc1cccc2cccc(-c3ncc4c(N5CC6CCC(C5)N6)nc(OCC5(CN6CCN(Cc7ccc8c(c7)C(=O)N(C7CCC(=O)NC7=O)C8=O)CC6)CC5)nc4c3F)c12` (stereo not shown) [Compound 28, 5-((4-((1-(((4-(3,8-diazabicyclo[3.2.1]octan-3-yl)-7-(8-ethynylnaphthalen-1-yl)-8-fluoropyrido[4,3-d]pyrimidin-2-yl)oxy)methyl)cyclopropyl)methyl)piperazin-1-yl)methyl)-2-(2,6-dioxopiperidin-3-yl)isoindoline-1,3-dione formate], for which the values for the IC50 in assay [1], in assay [2] and in assay [3] were less than 0.1 µM, more than 1 µM and more than 1 µM, respectively. Moreover, in assay [4], the GI50 was more than 1 µM.
Consider `CN1C[C@@H](N2CCC(C(=O)Nc3ccc4c(c3)C(=O)N(C3CCC(=O)NC3=O)C4=O)CC2)C[C@H]1COc1nc(N2CC3CCC(C2)N3)c2cnc(-c3cccc4ccccc34)c(F)c2n1` (stereo partly drawn) [Compound 25, 1-((3S,5S)-5-(((4-(3,8-diazabicyclo[3.2.1]octan-3-yl)-8-fluoro-7-(naphthalen-1-yl)pyrido[4,3-d]pyrimidin-2-yl)oxy)methyl)-1-methylpyrrolidin-3-yl)-N-(2-(2,6-dioxopiperidin-3-yl)-1,3-dioxoisoindolin-5-yl)piperidine-4-carboxamide formate], for which the concentration for half-maximal inhibition (IC50) was less than 0.1 µM in assay [1], more than 1 µM in assay [2] and more than 1 µM in assay [3]. Further, the GI50 in assay [4] is more than 1 µM.
`Cc1ncsc1-c1ccc(CNC(=O)[C@@H]2C[C@@H](O)CN2C(=O)[C@@H](NC(=O)C2CCN([C@H]3C[C@@H](COc4nc(N5CC6CCC(C5)N6)c5cnc(-c6cccc7cccc(Cl)c67)c(F)c5n4)N(C)C3)CC2)C(C)(C)C)cc1` [Compound 24, 1-((3S,5S)-5-(((4-(3,8-diazabicyclo[3.2.1]octan-3-yl)-7-(8-chloronaphthalen-1-yl)-8-fluoropyrido[4,3-d]pyrimidin-2-yl)oxy)methyl)-1-methylpyrrolidin-3-yl)-N—((S)-1-((2S,4R)-4-hydroxy-2-((4-(4-methylthiazol-5-yl)benzyl)carbamoyl)pyrrolidin-1-yl)-3,3-dimethyl-1-oxobutan-2-yl)piperidine-4-carboxamide formate]: the IC50 in assay [1] is 0.1 to 1 µM; in assay [2], more than 1 µM; in assay [3], more than 1 µM. Besides, the GI50 in assay [4] is more than 1 µM.
Regarding `C#Cc1cccc2cccc(-c3ncc4c(N5CC6CCC(C5)N6)nc(OC[C@@H]5CC[C@H](CN6CCN(Cc7ccc8c(c7)C(=O)N(C7CCC(=O)NC7=O)C8=O)CC6)N5C)nc4c3F)c12` (stereo partly drawn) [Compound 15, 5-((4-(((2R,5S)-5-(((4-(3,8-diazabicyclo[3.2.1]octan-3-yl)-7-(8-ethynylnaphthalen-1-yl)-8-fluoropyrido[4,3-d]pyrimidin-2-yl)oxy)methyl)-1-methylpyrrolidin-2-yl)methyl)piperazin-1-yl)methyl)-2-(2,6-dioxopiperidin-3-yl)isoindoline-1,3-dione formate], the IC50 in assay [1] was less than 0.1 µM; in assay [3], more than 1 µM. In addition, in assay [4], the GI50 was more than 1 µM.
